BindingDB's records for doi:10.1006/abio.2001.5466 (Kosan Biosciences, 2002)
Values joined by “and” are separate entries in the source; they are usually repeats but may differ in a detail not shown here. Equal values may be shown once.

Biological target: T1, Promotilin (Homo sapiens, UniProt P12872)
T1 sequence (P12872 whole entry): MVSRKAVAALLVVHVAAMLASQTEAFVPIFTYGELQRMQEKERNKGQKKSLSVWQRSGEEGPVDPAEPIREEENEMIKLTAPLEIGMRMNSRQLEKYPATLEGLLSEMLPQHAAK

| SMILES | Ki |
| --- | --- |
| CC[C@H]1OC(=O)[C@H](C)[C@@H](O[C@H]2C[C@@](C)(OC)[C@@H](O)[C@H](C)O2)[C@H](C)[C@@H](O[C@H]2O[C@@H](C)C[C@@H](N(C)C)[C@@H]2O)[C@](C)(O)C[C@@H](C)C(=O)[C@H](C)[C@@H](O)[C@]1(C)O [(3R,4S,5S,6R,7R,9R,11R,12R,13S,14R)-6-{[(2R,3S,4R,6S)-4-(dimethylamino)-3-hydroxy-6-methyloxan-2-yl]oxy}-14-ethyl-7,12,13-trihydroxy-4-{[(2R,4R,5S,6S)-5-hydroxy-4-methoxy-4,6-dimethyloxan-2-yl]oxy}-3,5,7,9,11,13-hexamethyl-1-oxacyclotetradecane-2,10-dione] | 1290 nM |
| CC[C@H](C)[C@H](NC(=O)[C@@H]1CCCN1C(=O)[C@@H](NC(=O)[C@@H](N)Cc1ccccc1)C(C)C)C(=O)N[C@@H](Cc1ccccc1)C(=O)N[C@H](C(=O)N[C@@H](Cc1ccc(O)cc1)C(=O)NCC(=O)N[C@@H](CCC(=O)O)C(=O)N[C@@H](CC(C)C)C(=O)N[C@@H](CCC(N)=O)C(=O)N[C@@H](CCCNC(=N)N)C(=O)N[C@@H](CCSC)C(=O)N[C@@H](CCC(N)=O)C(=O)N[C@@H](CCC(=O)O)C(=O)N[C@@H](CCCCN)C(=O)N[C@@H](CCC(=O)O)C(=O)N[C@@H](CCCNC(=N)N)C(=O)N[C@@H](CC(N)=O)C(=O)N[C@@H](CCCCN)C(=O)NCC(=O)N[C@@H](CCC(N)=O)C(=O)O)[C@@H](C)O [CAS_52906-92-0] | 5.25 nM |
| CC[C@H]1OC(=O)[C@H](C)[C@@H](O[C@H]2C[C@@](C)(OC)[C@@H](O)[C@H](C)O2)[C@H](C)[C@@H](O[C@@H]2O[C@H](C)C[C@H](N(C)C)[C@H]2O)[C@@]2(C)CC(C)=C(O2)[C@H](C)[C@@H](O)[C@]1(C)O [Erythromycin-A enol ether] | 19.1 nM and 47.9 nM |
